The values below come from patent publication US20200407717A1, “METHODS OF MODULATING ANTISENSE ACTIVITY” (Ionis Pharmaceuticals, Inc., priority 2018, published 2020).

Holding throughout (assay type): cell-based
The test system of one data set is Malat1 RNA. Put plainly: Antisense activity by RT-qPCR, Malat1, HEK cells. The procedure:
A431 cells were grown at 10,000 cells per well and pre-treated with a variety of growth factors to determine if the addition of exogenous growth factors affects antisense activity or uptake of modified antisense oligonucleotides in a cell. The growth factors used were EGF, insulin growth factor (IGF), transforming growth factor (TGF), […] (VEGF), hepatocyte growth factor (HGF), platelet growth factor (PGF) and fibroblasts growth factor (FGF). To test antisense activity, cells were treated for 4 hours with a growth factor or vehicle alone, and then treated with compound no. 25690 (complementary to Drosha), compound no. 395254 (complementary to Malat1), or vehicle alone. RNA was isolated from the cells and Drosha or Malat1 RNA levels were measured by RT-qPCR. Human primer probe set 13816 (forward sequence […], designated herein as SEQ ID NO: 3; reverse sequence […], designated herein as SEQ ID NO: 4; probe sequence […], designated herein as SEQ ID NO: 5) was used to measure Drosha mRNA levels and primer probe set RTS2736 (forward sequence […], designated herein as SEQ ID NO: 6; reverse sequence […], designated herein as SEQ ID NO: 7; probe sequence TGCCACATCGCCACCCCGT, designated herein as SEQ ID NO: 8) was used to measure Malat1 RNA levels. Drosha and Malat1 RNA levels were normalized to total RNA content, as measured by RIBOGREEN®. Results are presented in the tables below as normalized RNA levels, relative to untreated control cells.
HEK cells were transfected with 2 μg plasmid encoding EGFR using Lipofectamine 3000 (ThermoFisher) at 2 μg/million cells. Cells were grown for 2 weeks in G418 selection media to select clones overexpressing EGFR. Cells were treated with compound no. 395254 for 16 hours prior to RT-qPCR analysis for Malat1, as in Example 8. The results, shown in the table below, indicate that antisense activity was increased in cells with higher expression levels of EGFR.
For orientation: Real-time PCR tracks product formation cycle by cycle.

Data set [1] deals with A431 cells. The data set is described as follows: Immunofluorescent microscopy co-localization. The procedure:
Immunofluorescent staining was used to visualize clathrin, EGFR, and PS-ASOs in A431 cells. Compound no. 446654 has the sequence and structure Cy3-^mCesTesGes^mCesTesAdsGds^mCdsTds^mCdsTdsGdsGdsAdsTesTesTesGesAe (SEQ ID NO: 10). Cells were incubated with FITC labeled epidermal growth factor (EGF) or unlabeled EGF and compound no. 446654 for 30 minutes, then fixed with 4% paraformaldehyde for 20 minutes at room temperature and permeabilized with 0.05% saponin (Sigma) in PBS for 5 minutes. Cells were treated with blocking buffer (1 mg/mL BSA in PBS) for 30 minutes and then incubated with primary antibodies at room temperature for 2-4 hours or at 4° C. overnight. Primary antibodies used were ab30 (Abcam) for EGFR, ab21679 (Abcam) for clathrin, and antibody 610456 (BD Bioscience) for early endosome antigen 1 (EEA1). After three washes with PBS, cells were fluorescently labeled with secondary antibodies at room temperature for 1-2 hours. Secondary antibodies used were anti-mouse conjugated to AF488 (ab150077, Abcam) or AF647 (ab150079, Abcam), and anti-rabbit conjugated to AF488 (ab150113, Abcam) or AF647 (ab150115, Abcam). Nuclei were labeled with Hoechst 33342. Cells were then visualized with a confocal microscope (Olympus FV-1000), and single slices and Z-stack images were obtained. Co-localization between PS-ASOs and different organelles was analyzed using FV10-ASW 3.0 viewer software.

Data set [2] relates to A431 cells. Put plainly: Localization in early and late endosomes after siRNA treatment. Conditions: 20 cells; for % ASO EE/Total ASO: early endosomes (EEA1); for % ASO LE/Total ASO: late endosomes (LAMP1). The procedure:
EGFR levels in A431 cells were reduced using two siRNAs targeting EGFR, Assay ID 42833 and Assay ID 644 (ThermoFisher). A siRNA targeting luciferase was used for a control. Treatment of cells with the EGFR siRNA reduced EGFR protein levels more than 80%. Following siRNA treatment, cells were treated with additional compounds to test for antisense compound localization, activity, or uptake, as described below.
Following siRNA treatment, cells were treated with compound no. 446654 for two hours. EEA1 was labeled as in Example 2 and LAMP1 was labeled with an antibody. EEA1 is a marker for early endosomes and LAMP1 is a marker for late endosomes. Co-localization of compound no. 446654 with EEA1 and with LAMP1 was observed. The number of 446654 loci co-localized with EEA1 or LAMP1 was counted in 20 cells, and compared to the total number of 446654 loci. The difference observed with control siRNA treatment vs EGFR siRNA treatment shown in Table 22 is significant, as determined by the student T-test (p<0.05), whereas the difference shown in Table 23 was not determined to be significant by the student T-test.

Setting [3] is: FITC-EGF, 30 minutes, EGFR and clathrin antibodies.
[4] abbreviates: FITC-EGF, EGFR and EEA1 antibodies.
Where [5] appears, read: unlabeled EGF, 30 minutes, EGFR and clathrin antibodies.
[6] abbreviates: unlabeled EGF, EGFR and EEA1 antibodies.

e = 2'-O-(2-methoxyethyl) (MOE); d = 2'-deoxy (DNA)

In the case of “GGCATATGCAGATAATGTTC (sugars from the 5' end e5 d10 e5, all phosphorothioate, methylation of C not given here) [compound 395254]”, the “Malat1 RNA (% Control)” value was determined as 100 % control with Malat1 RNA (1 nM, HEK cells overexpressing EGFR); 100 % control in the data set on Malat1 RNA (1 nM, Wild type HEK cells); 77.8 % control with Malat1 RNA (2 nM, HEK cells overexpressing EGFR); 98.3 % control with Malat1 RNA (2 nM, Wild type HEK cells); 73.4 % control in the data set with Malat1 RNA (3.9 nM, HEK cells overexpressing EGFR); 96 % control in the data set on Malat1 RNA (3.9 nM, Wild type HEK cells). The “Malat1 RNA (% Control)” value with Malat1 RNA (7.8 nM, HEK cells overexpressing EGFR) is 73.3 % control; in the data set with Malat1 RNA (7.8 nM, Wild type HEK cells), 87.5 % control; with Malat1 RNA (15.6 nM, HEK cells overexpressing EGFR) it was 68.1 % control; with Malat1 RNA (15.6 nM, Wild type HEK cells) it was 81.4 % control; in the data set with Malat1 RNA (31.3 nM, HEK cells overexpressing EGFR), 62.2 % control; in the data set on Malat1 RNA (31.3 nM, Wild type HEK cells), 86.2 % control. The “Malat1 RNA (% Control)” value is listed as 62.4 % control in the data set on Malat1 RNA (62.5 nM, HEK cells overexpressing EGFR); 95.4 % control in the data set with Malat1 RNA (62.5 nM, Wild type HEK cells); 55.9 % control in the data set on Malat1 RNA (125 nM, HEK cells overexpressing EGFR); 82.7 % control with Malat1 RNA (125 nM, Wild type HEK cells); 52.9 % control with Malat1 RNA (250 nM, HEK cells overexpressing EGFR); 72.1 % control with Malat1 RNA (250 nM, Wild type HEK cells). Also, the “Malat1 RNA (% Control)” value with Malat1 RNA (1000 nM, HEK cells overexpressing EGFR) is reported as 36.5 % control; in the data set with Malat1 RNA (1000 nM, Wild type HEK cells), 47.1 % control; in the data set with Malat1 RNA (2000 nM, HEK cells overexpressing EGFR), 35.3 % control; with Malat1 RNA (2000 nM, Wild type HEK cells), 28.5 % control; in the data set on Malat1 RNA (5000 nM (so in the source), HEK cells overexpressing EGFR), 44.1 % control; with Malat1 RNA (5000 nM (so in the source), Wild type HEK cells) it was 54.8 % control. For the same substance, in the data set with Malat1 RNA (16 hours), the “antisense activity in cells with higher expression levels of EGFR” value is on record as “increased”.

On to “Cy3-^mCesTesGes^mCesTesAdsGds^mCdsTds^mCdsTdsGdsGdsAdsTesTesTesGesAe (antisense CTGCTAGCCTCTGGATTTGA; listed as DNA, chemistry not fully specified) [compound 446654, Cy3-labeled PS-ASO]”, for which, in the data set on A431 cells [1] (setting [3]), the “co-localization with EGF” value is “observed within the cytoplasm and at the cell surface”; the co-localization with clathrin entry is reported as “observed at the cell surface”. In addition, in the data set with A431 cells [1] (setting [4]), the “co-localization with EEA1” value is on record as “observed within the cytoplasm”; the “co-localization with EGF” value is “observed both at the cell surface and within the cytoplasm”. Further, in the data set on A431 cells [1] (setting [5]), the “co-localization with EGFR” value is “observed both at the cell surface and within the cytoplasm”; the co-localization with clathrin result is recorded as “observed at the cell surface”. Further, in the data set on A431 cells [1] (setting [6]), the “co-localization with EEA1” value was “observed in the cytoplasm and within the nucleus”; the “co-localization with EGFR” value is “observed at the cell surface, in the cytoplasm, and within the nucleus”. In the data set with A431 cells [2] (Control luciferase siRNA), the “% ASO EE/Total ASO” value is reported as 15% and the “% ASO LE/Total ASO” value turned out to be 79%. Further, in the data set on A431 cells [2] (EGFR siRNA-1), the “% ASO EE/Total ASO” value stood at 26% and the “% ASO LE/Total ASO” value is reported as 66%.
